Among the data in ChEMBL document CHEMBL1944525, “Synthesis and activity of folate conjugated didemnin B for potential treatment of inflammatory diseases” (Bioorg Med Chem Lett, 2012) are relative binding affinity (RBA), Activity and IC50 values, retold here.

The subject of assay [1] is RAW264.7. Nature of the assay: Displacement of [3H]-folic acid from folate receptor on mouse RAW264.7 cells assessed as relative binding after 1 hr by liquid scintillation counting. Format: cell-based.
Assay [2] has as its system RAW264.7. Nature of the assay: Cytotoxicity against mouse RAW264.7 cells incubated for 5 hrs followed by replacement with fresh media measured after 72 hrs by XTT assay. Format: functional, cell-based. Background: Tetrazolium dyes change colour on reduction, which living cells bring about.
Assay [3] relates to RAW264.7. Briefly: Antiinflammatory activity in mouse RAW264.7 cells assessed as inhibition of LPS-induced TNFalpha production after 72 hrs […]. Format: functional, cell-based. The note with it: RAW264.7, 72 h.

As to `CC[C@H](C)[C@H]1NC(=O)[C@@H](NC(=O)[C@@H](CC(C)C)N(C)C(=O)[C@H]2CCCN2C(=O)C(C)OC(=O)OCCSSC[C@H](NC(=O)[C@H](CC(=O)O)NC(=O)[C@H](CC(=O)O)NC(=O)[C@H](CCCNC(=N)N)NC(=O)[C@H](CC(=O)O)NC(=O)CC[C@H](NC(=O)c2ccc(NCc3cnc4nc(N)[nH]c(=O)c4n3)cc2)C(=O)O)C(=O)O)[C@@H](C)OC(=O)[C@H](Cc2ccc(OC)cc2)N(C)C(=O)[C@@H]2CCCN2C(=O)[C@H](CC(C)C)NC(=O)[C@@H](C)C(=O)[C@H](C(C)C)OC(=O)C[C@@H]1O` (some centres undefined) [FOLATE DIDEMNIN B], the relative binding affinity (RBA) in the assay on RAW264.7 [1] turned out to be 0.18. In the assay on RAW264.7 [2], the Activity result was “Dose-dependent effect” and the midpoint of inhibition, the IC50, lay at 13 nM. In addition, the half-inhibitory concentration (IC50) (in general, the concentration that inhibits the measured activity by half) with RAW264.7 [3] worked out at 5 nM.
